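All cell lines were grown in 96-well plates and treated with compound for 48 hours. GI50 marks 50% less growth.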 The source made the active and inactive calls. No stated cut-off is given here; in the data, active = GI50 up to about 1.1 µM and inactive = higher.
Assays:
Experiment in all cases: NCI anticancer screen, dose series, 48 h
[1] = tested on: CAKI-1
[2] = tested on: PC-3
[3] = tested on: OVCAR-8
[4] = tested on: COLO 205
[5] = tested on: NCI-H23
[6] = tested on: SNB-75
[7] = tested on: SF-295
[8] = tested on: SK-MEL-28
[9] = tested on: OVCAR-3
[10] = tested on: T47D
[11] = tested on: CCRF-CEM
[12] = tested on: SR
[13] = tested on: HCT-116
[14] = tested on: A498
[15] = tested on: HCC 2998
[16] = tested on: SNB-19
[17] = tested on: IGROV-1
[18] = tested on: SF-268
[19] = tested on: HOP-62
[20] = tested on: OVCAR-5
[21] = tested on: TK-10
[22] = tested on: SF-539
[23] = tested on: MOLT-4
[24] = tested on: MDA-N
[25] = tested on: SK-MEL-5
[26] = tested on: Malme-3M
[27] = tested on: SK-OV-3
[28] = tested on: RXF 393
[29] = tested on: KM12
[30] = tested on: SW-620
[31] = tested on: UO-31
[32] = tested on: A549
[33] = tested on: MCF7
[34] = tested on: RPMI-8226
[35] = tested on: HOP-92
[36] = tested on: SK-MEL-2
[37] = tested on: K562
[38] = tested on: NCI/ADR-RES
[39] = tested on: NCI-H460
[40] = tested on: M14
[41] = tested on: ACHN
[42] = tested on: 786-0
[43] = tested on: HCT-15
[44] = tested on: SN12C
[45] = tested on: LOX IMVI
[46] = tested on: NCI-H226
[47] = tested on: HL-60
[48] = tested on: U-251
[49] = tested on: DU-145

With CC(=O)c1c[nH]cc1CO the GI50 [1] was > 10 µM (inactive), the GI50 [2] was > 10 µM (inactive) and the GI50 [3] was > 10 µM (inactive). For the same compound, the GI50 [4] was > 10 µM (inactive), the GI50 [5] was > 10 µM (inactive) and the GI50 [6] was > 10 µM (inactive). The GI50 [7] was > 10 µM (inactive), the GI50 [8] was > 10 µM (inactive) and the GI50 [9] was > 10 µM (inactive). The GI50 [10] was > 10 µM (inactive), the GI50 [11] was > 10 µM (inactive) and the GI50 [12] was > 10 µM (inactive). For the same compound, the GI50 [13] was > 10 µM (inactive), the GI50 [14] was > 10 µM (inactive) and the GI50 [15] was > 10 µM (inactive). The GI50 [16] was > 10 µM (inactive), the GI50 [17] was > 10 µM (inactive) and the GI50 [18] was > 10 µM (inactive). For the same compound, the GI50 [19] was > 10 µM (inactive), the GI50 [20] was > 10 µM (inactive) and the GI50 [21] was > 10 µM (inactive). For the same compound, the GI50 [22] was > 10 µM (inactive), the GI50 [23] was > 10 µM (inactive) and the GI50 [24] was > 10 µM (inactive). For the same compound, the GI50 [25] was > 10 µM (inactive), the GI50 [26] was > 10 µM (inactive) and the GI50 [27] was > 10 µM (inactive). The GI50 [28] was > 10 µM (inactive), the GI50 [29] was > 10 µM (inactive) and the GI50 [30] was > 10 µM (inactive). The GI50 [31] was > 10 µM (inactive), the GI50 [32] was > 10 µM (inactive) and the GI50 [33] was > 10 µM (inactive). The GI50 [34] was > 10 µM (inactive), the GI50 [35] was > 10 µM (inactive) and the GI50 [36] was > 10 µM (inactive). For the same compound, the GI50 [37] was > 10 µM (inactive), the GI50 [38] was > 10 µM (inactive) and the GI50 [39] was > 10 µM (inactive). The GI50 [40] was > 10 µM (inactive), the GI50 [41] was > 10 µM (inactive) and the GI50 [42] was > 10 µM (inactive). For the same compound, the GI50 [43] was > 10 µM, the GI50 [44] was > 10 µM (inactive) and the GI50 [45] was > 10 µM (inactive). The GI50 [46] was > 10 µM (inactive), the GI50 [47] was > 10 µM (inactive) and the GI50 [48] was > 10 µM (inactive).
For C/C(=N\NC(=O)c1ccncc1)c1cccc(F)c1, the GI50 [1] was > 10 µM (inactive), the GI50 [2] was > 10 µM (inactive) and the GI50 [3] was > 10 µM (inactive). The GI50 [4] was > 10 µM (inactive), the GI50 [5] was > 10 µM (inactive) and the GI50 [6] was > 10 µM (inactive). The GI50 [7] was > 10 µM (inactive), the GI50 [8] was > 10 µM (inactive) and the GI50 [9] was > 10 µM (inactive). For the same compound, the GI50 [10] was > 10 µM (inactive), the GI50 [11] was > 10 µM (inactive) and the GI50 [12] was > 10 µM (inactive). For the same compound, the GI50 [13] was > 10 µM (inactive), the GI50 [14] was > 10 µM (inactive) and the GI50 [15] was > 10 µM (inactive). The GI50 [16] was > 10 µM (inactive), the GI50 [17] was > 10 µM (inactive) and the GI50 [18] was > 10 µM (inactive). The GI50 [19] was > 10 µM (inactive), the GI50 [20] was > 10 µM (inactive) and the GI50 [21] was > 10 µM (inactive). For the same compound, the GI50 [22] was > 10 µM (inactive), the GI50 [23] was > 10 µM (inactive) and the GI50 [24] was > 10 µM (inactive). The GI50 [25] was > 10 µM (inactive), the GI50 [26] was > 10 µM (inactive) and the GI50 [27] was > 10 µM (inactive). For the same compound, the GI50 [28] was > 10 µM (inactive), the GI50 [29] was > 10 µM (inactive) and the GI50 [30] was > 10 µM (inactive). For the same compound, the GI50 [31] was > 10 µM (inactive), the GI50 [32] was > 10 µM (inactive) and the GI50 [33] was > 10 µM (inactive). The GI50 [34] was > 10 µM (inactive), the GI50 [35] was > 10 µM (inactive) and the GI50 [36] was > 10 µM (inactive). For the same compound, the GI50 [37] was > 10 µM (inactive), the GI50 [38] was > 10 µM (inactive) and the GI50 [39] was > 10 µM (inactive). The GI50 [40] was > 10 µM (inactive), the GI50 [41] was > 10 µM (inactive) and the GI50 [42] was > 10 µM (inactive). The GI50 [43] was > 10 µM, the GI50 [44] was > 10 µM (inactive) and the GI50 [45] was > 10 µM (inactive). For the same compound, the GI50 [46] was > 10 µM (inactive), the GI50 [47] was > 10 µM (inactive) and the GI50 [48] was > 10 µM (inactive).
For COc1cc(OC)cc(Oc2nc3cc(N)cc(N)c3nc2-c2ccccc2)c1, the GI50 [1] was 4.19 µM (inactive), the GI50 [2] was 3.85 µM (inactive) and the GI50 [14] was 1.95 µM (inactive). The GI50 [21] was 1.73 µM (inactive), the GI50 [28] was 1.02 µM (active) and the GI50 [31] was 3.44 µM (inactive). The GI50 [34] was 2.86 µM (inactive), the GI50 [49] was 4.52 µM (inactive) and the GI50 [41] was 4.25 µM (inactive). The GI50 [42] was 2.19 µM (inactive) and the GI50 [44] was 4.4 µM (inactive).
